In brackets after ≈: the same amount, converted by molar mass. Read-outs that look alike come from different tables or passages of the source.

In series [1] the test system is C. neoformans strain H99. As to the kind of experiment: Delayed-treatment model of cryptococcal meningitis. In kind it is in vivo, Cryptococcus neoformans. The settings on record: treatment from 24 h after infection, QD 7 days; APX2096 60 mg/kg i.p. + ABT, AMB 3 mg/kg i.p. The procedure: As in the previous mouse model, 100-mg/kg ABT (p.o.) was administered 2 h prior to each APX2096 dose (n = 5 mice/cohort). Infection was initiated on day 1, and treatment was initiated 24 h later (day 2) rather than 1 h later. Treatments were administered for 7 days (the final dose was administered on day 8), and mice were sacrificed on day 9 for CFU enumeration.
Male CD-1 mice were infected with 5.4 × 10^4 CFU per mouse via lateral tail vein injection. […] A dose of 100-mg/kg ABT was administered orally 2 h prior to each APX2096 dose. Mice were sacrificed 24 h after the last dose, and the brain and left lung were homogenized and cultured for quantitative determination of the tissue burden (number of CFU per gram of tissue). Fungal burden data were log10 transformed and evaluated using Kruskal-Wallis tests with Dunn's multiple-comparison test for post hoc analysis (Prism software, v5; GraphPad Software, Inc., San Diego, CA). A P value of ≤0.05 was considered statistically significant (*, P ≤ 0.05; **, P ≤ 0.01). The 95% confidence interval (CI) is presented.
Fungal burden data were log10 transformed and evaluated using Kruskal-Wallis tests with Dunn's multiple-comparison test for post hoc analysis (Prism software, v5; GraphPad Software, Inc., San Diego, CA). A P value of ≤0.05 was considered statistically significant.

A short description of series [2]: Acute toxicity and survival observed in the CM model with ABT. Particulars: i.p. dosing + ABT; dose then reduced to 60 mg/kg for surviving mice. In kind it is in vivo, mouse. The procedure: (§1) ABT at 100 mg/kg was administered orally to male CD-1 mice at 2 h prior to each APX compound dose. Mice were injected with 6.9 × 10^4 CFU of C. neoformans strain H99 per mouse via the lateral tail vein at time zero. Treatment with the APX compound was initiated at about 1 h postinfection by i.p. administration and continued for 7 days, with 100-mg/kg ABT being administered orally 2 h prior to each APX compound dose. […] Fungal burden data were log10 transformed and evaluated using Kruskal-Wallis tests with Dunn's multiple-comparison test for post hoc analysis (Prism software, v5; GraphPad Software, Inc., San Diego, CA). A P value of ≤0.05 was considered statistically significant (*, P ≤ 0.05; **, P ≤ 0.01). The 95% confidence interval (CI) is presented.
(§2) C. neoformans strain H99 was grown in yeast extract-peptone-dextrose broth at 30°C on a shaker (220 rpm) for 24 h, centrifuged (1,980 relative centrifugal force), and washed twice in phosphate-buffered saline (PBS), resuspended in PBS, and quantified by hemacytometric count. Male CD-1 mice were infected with ∼5 × 10^4 CFU per mouse via lateral tail vein injection of 100 μl. Mice were weighed, and treatment was begun within 1 h after infection. Treatments were administered daily for 7 days. Mice were weighed daily and observed for acute and chronic adverse symptoms. Mice were sacrificed on day 8, and the brain and left lung were homogenized and cultured for quantitative determination of the tissue burden (number of CFU per gram of tissue). Tissues were homogenized for 25 s in 1 ml phosphate-buffered saline using two 6.5-mm steel beads and a Mini-Beadbeater 16 apparatus (Biospec Products, Inc., Bartlesville, OK) and serially diluted in 10-fold steps. Aliquots (100 μl) of homogenate were plated and incubated for 3 to 7 days at 37°C. Fungal burden data were log10 transformed and evaluated using Kruskal-Wallis tests with Dunn's multiple-comparison test for post hoc analysis (Prism software, v5; GraphPad Software, Inc., San Diego, CA). A P value of ≤0.05 was considered statistically significant.

For series [3], the system named is C. neoformans strain H99. As to the kind of experiment: Murine cryptococcal meningitis model with ABT, dose-response study. The format is in vivo, Cryptococcus neoformans. How it is done: A dose-response study was performed with APX2096 and APX2097 to confirm the observed activity. In this study, QD doses of 7.5, 20, and 60 mg/kg were evaluated in conjunction with the administration of ABT. A 60-mg/kg dose QD without ABT was also evaluated as a control.
FIG 3 Dose-response of APX2096 and APX2097 in a murine model of cryptococcal meningitis in conjunction with ABT administration. ABT at 100 mg/kg was administered orally to male CD-1 mice at 2 h prior to each APX compound dose. Mice were injected with 4.8 × 10^4 CFU C. neoformans strain H99 per mouse via the lateral tail vein at time zero. Treatment with the APX compounds was initiated at 1 h postinfection by i.p. administration and continued for 7 days, with 100-mg/kg ABT being administered orally 2 h prior to each APX compound dose. The correction factors for prodrug potencies versus the potencies of the active moieties were similar enough such that the same factor (1.3) was used for all APX compounds. Fungal burden data were log10 transformed and evaluated using Kruskal-Wallis tests with Dunn's multiple-comparison test for post hoc analysis (Prism software, v5; GraphPad Software, Inc., San Diego, CA). […] A P value of ≤0.05 was considered statistically significant (*, P ≤ 0.05; **, P ≤ 0.01; ***, P ≤ 0.001). The 95% confidence interval (CI) is presented.
as §2

Series [4] deals with C. neoformans strain H99. As to the kind of experiment: Murine cryptococcal meningitis model with ABT pretreatment (preliminary experiment). The settings on record: 7 days. The format is in vivo, Cryptococcus neoformans. The procedure:
In a preliminary experiment, the efficacies of APX001, APX2096, and APX2097 were evaluated in the disseminated model of CM (n = 5 mice/cohort). ABT at 100 mg/kg was administered orally to male CD-1 mice 2 h prior to APX compound administration. Mice were injected with 6.9 × 10^4 CFU of C. neoformans strain H99 per mouse via the lateral tail vein at time zero. Treatment with each prodrug was initiated at about 1 h postinfection by i.p. administration and continued daily for 7 days, with 100-mg/kg ABT being administered orally 2 h prior to each APX compound dose.
as §1, §2

The subject of series [5] is C. neoformans. As to the kind of experiment: Broth microdilution susceptibility testing (CLSI M27-A3). The format is cell-based, Cryptococcus neoformans. Particulars: Cryptococcus neoformans. The source says:
(§3) C. neoformans strains H99, DUMC 118.00, and DUMC 158.03 and C. gattii strains R272 and RSA-MW-3515 were obtained from Duke University. C. albicans 90028, A. fumigatus MYA3626, C. neoformans 14116, C. neoformans 76484, and the pathogenic Cryptococcus reference strains panel (ATCC MP-11) were obtained from the American Type Culture Collection (ATCC; Manassas, VA, USA). The ATCC MP-11 panel consists of strains representing eight molecular types and three subtypes of C. neoformans and C. gattii.
(§4) To establish the antimicrobial activity of the APX001A analogs, broth microdilution susceptibility testing was performed according to Clinical and Laboratory Standards Institute (CLSI) guidelines M27-A3 ([47]) for yeasts and M38-A2 for molds ([48]). APX001A and analogs were first diluted in DMSO to obtain intermediate dilutions. These were further diluted in microtiter plates to obtain a final concentration of 2 to 0.002 μg/ml. One microliter of DMSO was added to the no-drug control wells. The solutions were mixed on a plate shaker for 10 min, and the plates were incubated at 35°C for 40 to 48 h (C. albicans, A. fumigatus) and 72 h (C. neoformans). The minimum concentration that led to a 50% reduction in fungal growth compared to that for the control (determined with the aid of a reading mirror) was determined as the MIC for C. albicans and C. neoformans. The minimum concentration that led to the shortening of hyphae compared to the hyphal growth in DMSO control wells was determined as the minimum effective concentration (MEC) for A. fumigatus (as read for the echinocandins). The use of the MIC and MEC endpoints for APX001A (formerly E1210) against yeasts and molds, respectively, has been described previously ([19][–][21]). For the cryptococcal synergy studies, APX001A and APX2020 MIC values were read at 50% inhibition.
(Broth dilution looks for growth in wells or tubes with falling amounts of substance.)

Series [6] concerns C. neoformans. On the set-up: method as in PMID 15078612. Particulars: U.S. isolates; cited from earlier work.
Series [7] deals with FLC-susceptible and FLC-nonsusceptible/resistant strains of C. neoformans and C. gattii. As to the kind of experiment: Broth microdilution, summary over the 18-strain Cryptococcus collection. The format is cell-based, Cryptococcus neoformans and Cryptococcus gattii. The settings on record: 18 strains of C. neoformans and C. gattii. The procedure:
as §4, with “The minimum concentration that led to the shortening of hyphae compared to the hyphal growth in DMSO control wells was determined as the minimum effective concentration (MEC) for A. fumigatus (as read for the echinocandins).” left out

The subject of a further series is A. fumigatus MYA3626. As to the kind of experiment: Broth microdilution susceptibility testing for molds (CLSI M38-A2). In kind it is cell-based. Particulars: Aspergillus fumigatus, MYA3626; read-out: MIC or MEC for A. fumigatus MYA3626.
Description: as §3, §4

The subject of the next series is C. gattii. As to the kind of experiment: Broth microdilution susceptibility testing (CLSI M27-A3). In kind it is cell-based. The settings on record: Cryptococcus gattii.
Description: as §3, §4

Another series concerns C. albicans 90028. The series is described as above. In kind it is cell-based, Candida albicans. Particulars: Candida albicans, 90028; read-out: MIC, C. albicans 90028.
Description: as §3, §4

Setting [8] is: 34 mg/kg QD i.p. + ABT 100 mg/kg p.o.

Turning to `Nc1c(-c2cc(Cc3ccc(Oc4cccc(F)n4)cc3)no2)ccc[n+]1COP(=O)([O-])O` [APX2096], in the series with C. neoformans strain H99 [1], the “reduction in brain tissue fungal burden vs untreated control” value was determined as 6.84 log10 CFU/g. The “reduction of the lung tissue fungal burden vs untreated control” value in the series on C. neoformans strain H99 [1] was 4.59 log10 CFU/g. In addition, in series [2], the “Acute toxicity observed (day of treatment)” value is given as “day 1”. The “reduction in brain fungal burden” value is reported as 2.95 log10 CFU/g in the series with C. neoformans strain H99 [3] (20 mg/kg QD i.p. + ABT), 7.05 log10 CFU/g with C. neoformans strain H99 [4] (setting [8]) and 7.13 log10 CFU/g with C. neoformans strain H99 [4] (60 mg/kg i.p. (dose reduced after day 1) + ABT). Further, the “reduction in lung fungal burden” value in the series with C. neoformans strain H99 [3] (20 mg/kg QD i.p. + ABT) is 3.69 log10 CFU/g; in the series on C. neoformans strain H99 [4] (setting [8]), “approximately 4.67 log10 CFU/g”; in the series with C. neoformans strain H99 [4] (60 mg/kg i.p. (dose reduced after day 1) + ABT, burden below the limit of detection) it was “approximately 4.67 log10 CFU/g”. Also, the “reduction in lung burden, without ABT” value in the series on C. neoformans strain H99 [3] (60 mg/kg/day i.p. without ABT, nonsignificant) was found to be 0.74 log10 CFU/g.

The term MIC denotes the lowest concentration found to suppress growth. Broadly, the MIC90 is an inhibitory concentration at the 90% level, which refers to growth in some studies and to a panel of isolates in others. As for `C[C@@H]1[C@H](O)[C@@H](C)/C=C/C=C/C=C/C=C/C=C/C=C/C=C/[C@H](O[C@@H]2O[C@H](C)[C@@H](O)[C@H](N)[C@@H]2O)C[C@@H]2O[C@](O)(C[C@@H](O)C[C@@H](O)[C@H](O)CC[C@@H](O)C[C@@H](O)CC(=O)O[C@H]1C)C[C@H](O)[C@H]2C(=O)O` [AMB, amphotericin B, reference compound], in the series on C. neoformans strain H99 [1], the “reduction of the lung tissue fungal burden vs untreated control” value amounted to 4.02 log10 CFU/g. Further, the MIC was determined as 0.25 µg/mL in the series with C. neoformans [5] (72 h, Table 1, 50% growth inhibition for FLC, caspofungin and APX compounds, 100% for AMB, 72 h, read-out: MIC, C. neoformans H99); 0.25 µg/mL with C. neoformans [5] (C. neoformans isolate 14116, read-out: MIC); 0.25 µg/mL in the series on C. neoformans [5] (C. neoformans isolate 76484, read-out: MIC); 0.25 µg/mL with C. neoformans [5] (C. neoformans isolate DUMC 118.00 (FLC resistant), read-out: MIC); 1 µg/mL in the series on C. neoformans [5] (C. neoformans isolate DUMC 158.03 (FLC resistant), read-out: MIC); 0.25 µg/mL in the series with C. neoformans [5] (C. neoformans isolate MYA-4564, read-out: MIC). Moreover, the MIC is 0.125 µg/mL with C. neoformans [5] (C. neoformans isolate MYA-4565, read-out: MIC); 0.25 µg/mL with C. neoformans [5] (C. neoformans isolate MYA-4566, read-out: MIC); 0.25 µg/mL in the series on C. neoformans [5] (C. neoformans isolate MYA-4567, read-out: MIC); 0.25 µg/mL in the series with C. neoformans [5] (Table 2, C. neoformans isolate H99, read-out: MIC); 0.215 µg/mL in series [7] (read-out: Geometric mean MIC); 1 µg/mL in the series with A. fumigatus MYA3626. Moreover, the minimal inhibitory concentration (MIC) in the series with C. gattii (C. gattii isolate MYA-4093, read-out: MIC) turned out to be 0.25 µg/mL; in the series on C. gattii (C. gattii isolate MYA-4094, read-out: MIC), 0.25 µg/mL; with C. gattii (C. gattii isolate MYA-4560 (first listing, r17), read-out: MIC), 0.063 µg/mL; in the series on C. gattii (C. gattii isolate MYA-4560 (second listing, r21), read-out: MIC), 0.063 µg/mL; in the series on C. gattii (C. gattii isolate MYA-4561, read-out: MIC), 0.25 µg/mL; with C. gattii (C. gattii isolate MYA-4562, read-out: MIC) it was 0.25 µg/mL. Moreover, the MIC is 0.125 µg/mL in the series with C. gattii (C. gattii isolate MYA-4563, read-out: MIC); 0.25 µg/mL with C. gattii (C. gattii isolate MYA-4877, read-out: MIC); 0.25 µg/mL with C. gattii (C. gattii isolate RSA-MW-3615 (FLC resistant), read-out: MIC); 0.25 µg/mL in the series on C. gattii (Table 1, 50% growth inhibition for FLC, caspofungin and APX compounds, 100% for AMB, read-out: MIC, C. gattii WM276); 1 µg/mL in the series on C. albicans 90028. Moreover, the figures for the MIC90 (with C. neoformans [6]; in series [7]) were 2 µg/mL (≈ 2.16 µM) and 0.25 µg/mL, respectively.
